Measured values published in patent publication US7879844B2, “Heterocyclic janus kinase 3 inhibitors” (Astellas Pharma Inc., priority 2005, dated 2011).
pIC50: −log10 of the molar value.

target: T1, human JAK3 kinase domain (Homo sapiens, UniProt P52333); experiment: JAK3 inhibition test; type: biochemical; conditions: purified human JAK3 kinase domain; Biotin-Lyn-Substrate-2, 20 μM ATP in substrate solution; absorbance at 450 nm; read-out: IC50 (JAK3 inhibitory activity)
T1 construct: attached to the N-terminal of the 796-1124 (C-terminal) fragment of the human JAK3 protein; His-tag (N); purchased Carna Biosciences, Inc. (Kobe, Japan); host or cells: baculovirus expression system
T1 sequence (P52333 796-1124): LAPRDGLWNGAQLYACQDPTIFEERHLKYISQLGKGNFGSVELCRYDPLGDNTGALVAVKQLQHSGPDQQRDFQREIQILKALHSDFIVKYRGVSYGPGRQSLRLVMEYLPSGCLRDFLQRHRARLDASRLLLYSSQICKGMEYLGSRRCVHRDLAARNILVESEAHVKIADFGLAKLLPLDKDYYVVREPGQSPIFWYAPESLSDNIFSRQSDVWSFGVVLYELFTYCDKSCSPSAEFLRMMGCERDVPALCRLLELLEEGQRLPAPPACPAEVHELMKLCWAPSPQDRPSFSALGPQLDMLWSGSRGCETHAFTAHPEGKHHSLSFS
Method: The JAK3 inhibition test was performed as described below according to the method of Okimoto et al.
Purified human JAK3 kinase domain was purchased from Carna Biosciences, Inc. (Kobe, Japan). This is obtained as described below. His-tag (41 kDa) was attached to the N-terminal of the 796-1124 (C-terminal) fragment of the human JAK3 protein (accession number #NM_000215), expressed using baculovirus expression system, and then purified using Ni-NTA affinity column chromatography.
After incubation at ambient temperature for one hour, the plate was washed with a cleaning buffer (50 mM Tris-HCl pH 7.5, 150 mM NaCl, 0.02% Tween 20), and a blocking buffer (a cleaning buffer containing 0.1% bovine serum albumin) was added to the plate. After incubation at ambient temperature for 30 minutes, the blocking buffer was removed, and an HRP-PY-20 solution (obtained by diluting HRP-PY-20 solution with the blocking buffer 500 times) was added. After incubation at ambient temperature for 30 minutes, the plate was washed four times, and a TMB substrate solution (Sigma) was added to the plate. After incubation at ambient temperature for four minutes, 1M sulfuric acid was added to stop the reaction. Enzyme activity was measured as absorbance at 450 nm. The efficacy of the test compound as a JAK3 inhibitor was expressed as an IC50 value.

| pIC50 | SMILES |
| --- | --- |
| 8.64 | N#CC12CC3CC(C1)C(Nc1c(C(N)=O)cnc4[nH]cnc14)C(C3)C2 (centres unmarked) [Example 426] |
| 9.51 | OCc1noc(-c2cnc3[nH]ccc3c2N[C@H]2C3CC4CC2C[C@@](O)(C4)C3)n1 [Example 484] |
| 9.55 | CN(CC#N)C(=O)C12CC3CC(C1)C(n1c(=O)[nH]c4cnc5[nH]ccc5c41)C(C3)C2 (centres unmarked) [Example 384] |
| 8.68 | CNC(=O)C(=O)Nc1nn([C@H]2[C@@H]3CC4C[C@H]2C[C@@](O)(C4)C3)c2c1cnc1[nH]ccc12 [Example 33, cis-N-{1-[(1R,2R,3S,5s)-5-hydroxyadamantan-2-yl]-1,6-dihydropyrazolo[3,4-d]pyrrolo[2,3-b]pyridine-3-yl}-N′-methylethanediamide] |
| 9.19 | N#CCCOC12CC3CC(C1)C(n1c(=O)[nH]c4cnc5[nH]ccc5c41)C(C3)C2 (centres unmarked) [Example 405] |
| 9.16 | N#Cc1ccc(N2[C@@H]3CC[C@H]2C[C@H](Nc2c(C(N)=O)cnc4[nH]ccc24)C3)nc1 [Example 143] |
| 8.72 | COCCNC(=O)C(=O)Nc1nn([C@H]2C3CC4CC2C[C@@](O)(C4)C3)c2c1cnc1[nH]ccc12 [Example 32, cis-N-{1-[(1R,2R,3S,5s)-5-hydroxyadamantan-2-yl]-1,6-dihydropyrazolo[3,4-d]pyrrolo[2,3-b]pyridine-3-yl}-N′-(2-methoxyethyl)ethanediamide] |
| 8.89 | N#CCCOC12CC3CC(C1)C(n1[nH]c(=O)c4cnc5[nH]ccc5c41)C(C3)C2 (centres unmarked) [Example 498] |
| 9.77 | Nc1nnc(-c2cnc3[nH]ccc3c2N[C@H]2C3CC4CC2C[C@@](O)(C4)C3)s1 [Example 34, (1s,4r)-4-{[5-(5-amino-1,3,4-thiadiazole-2-yl)-1H-pyrrolo[2,3-b]pyridine-4-yl]amino}adamantan-1-ol] |
| 9.07 | CO[C@H]1CC[C@H](NC(=O)C(=O)Nc2nn([C@H]3[C@@H]4CC5C[C@H]3C[C@@](O)(C5)C4)c3c2cnc2[nH]ccc23)CC1 [Example 434] |
| 9.48 | N#Cc1ccc(N2[C@@H]3CC[C@H]2C[C@H](Nc2c(C(N)=O)cnc4[nH]ccc24)C3)nn1 [Example 543] |
| 8.36 | NC(=O)c1cnc2[nH]ccc2c1N[C@@H]1C[C@H]2CC[C@@H]1C2 [Example 133] |
| 8.64 | O[C@]12CC3C[C@H](C1)[C@H](Nc1c(-c4nnco4)cnc4[nH]ccc14)[C@@H](C3)C2 (relative stereo) [Example 29, rel-(1s,3R,4R,5S)-4-{[5-(1,3,4-oxazole-2-yl)-1H-pyrrolo[2,3-b]pyridine-4-yl]amino}adamantan-1-ol] |
| 8.92 | O=C(CO)c1cnc2[nH]ccc2c1N[C@H]1C2CC3CC1C[C@@](O)(C3)C2 [Example 379] |
